The results in this text go back to US9567339B2, “Primary carboxamides as BTK inhibitors” (AbbVie Inc., priority 2013, dated 2017).

The structures appear in SMILES notation.

Sequence of BTK, recombinant human catalytic domain (aa 393-659) (Q06187 393-659): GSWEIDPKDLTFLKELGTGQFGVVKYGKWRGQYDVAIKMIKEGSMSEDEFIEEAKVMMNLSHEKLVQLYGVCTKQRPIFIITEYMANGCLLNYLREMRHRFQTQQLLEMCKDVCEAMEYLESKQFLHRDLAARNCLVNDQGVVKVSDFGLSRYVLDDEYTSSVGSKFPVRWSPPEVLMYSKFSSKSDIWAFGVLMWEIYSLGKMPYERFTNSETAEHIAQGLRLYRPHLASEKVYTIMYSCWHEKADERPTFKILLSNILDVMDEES

One test has as its target BTK, recombinant human catalytic domain (aa 393-659) (Homo sapiens (Human), UniProt Q06187). In words: In vitro BTK kinase activity measured by time-resolved fluorescence resonance energy transfer (trFRET). In kind it is biochemical. The following applies: read-out: Btk IC50.
A word on the IC50: it is the concentration at which inhibition is half-maximal. For `Cc1c(-c2ccc(C(N)=O)c3[nH]c(-c4cnn(C[C@H](O)CO)c4)cc23)cccc1-n1cnc2ccccc2c1=O` [K.1.1], the IC50 is under 0.1 µM.

In the case of `CC(C)(C)c1ccc(C(=O)N[C@@H]2CCCN(c3ccc(C(N)=O)c4[nH]c(-c5cccnc5)cc34)C2)cc1` [O.1.26], the IC50 was under 0.1 µM.

On to `Cc1c(NC(=O)CF)cccc1-c1ccc(C(N)=O)c2[nH]c(C3=CCN(S(C)(=O)=O)CC3)cc12` [D.7.22], for which the IC50 is under 0.1 µM. Same read-out and setting: under `C=CC(=O)Nc1cc(OCc2nccs2)cc(-c2ccc(C(N)=O)c3[nH]ccc23)c1` [E.1.15] stands 0.1 to 1 µM; under `C=CC(=O)Nc1cc(OC)cc(-c2ccc(C(N)=O)c3[nH]ccc23)c1` [E.1.28], 0.1 to 1 µM. On the same count and under the same terms, the result for `C=CC(=O)N1CC[C@@H](c2ccc(C(N)=O)c3[nH]c(C)cc23)C1` [E.9.40*] reads 0.1 to 1 µM; that for `C=CC(=O)N1CC([C@H](C)c2ncc(C(N)=O)c3[nH]ccc23)C1` [E.9.29], 0.1 to 1 µM. Regarding `NC(=O)c1ccc(N2CCCC(n3cnc4cc(C5CC5)cc(F)c4c3=O)C2)c2cc[nH]c12` (centres unmarked) [O.1.13], the IC50 lay in the range of 1 to 10 µM. In the case of `Cc1c(NC(=O)/C=C/CN(C)C)cccc1-c1ccc(C(N)=O)c2[nH]c(C3=CCN(S(C)(=O)=O)CC3)cc12` [D.7.2], the IC50 is under 0.1 µM.

`C=CC(=O)N(C)c1cccc(-c2ccc(C(N)=O)c3[nH]ccc23)c1` [E.1.5]: the IC50 was under 0.1 µM. Same read-out and setting: the result for `COC(=O)/C=C/C(=O)Nc1cccc(-c2ccc(C(N)=O)c3[nH]c(C4=CCN(S(C)(=O)=O)CC4)cc23)c1C` [D.7.18] reads under 0.1 µM. On the same count and under the same terms, under `C=CC(=O)Nc1cccc(-c2ccc(C(N)=O)c3[nH]c(C=C)cc23)c1` [E.1.18] stands under 0.1 µM. The same measure, in the same setting: under `C=CC(=O)N1CC(N(C)c2ccc(C(N)=O)c3[nH]c(C4CCN(CCC)CC4)cc23)C1` [E.9.20] stands under 0.1 µM; under `Cc1c(NC(=O)C2CCCC2)cccc1-c1ccc(C(N)=O)c2[nH]c(C3=CCN(S(C)(=O)=O)CC3)cc12` [D.7.31], under 0.1 µM; under `CS(=O)(=O)N1CC=C(c2cc3c(N4CCC[C@@H](N5CCn6ccnc6C5=O)C4)ccc(C(N)=O)c3[nH]2)CC1` [O.1.3*], under 0.1 µM. Consider `C=CC(=O)N1CC(N(C)c2ccc(C(N)=O)c3[nH]c([C@@H]4CCOC4)cc23)C1` [Example 5.1], for which the IC50 is under 0.1 µM. The same measure, in the same setting: under `CC(=O)C(=O)NCc1cccc(-c2ccc(C(N)=O)c3[nH]ccc23)c1` [E.7.2] stands 0.1 to 1 µM.

Consider `Cc1c(NC(=O)C2CCCN(C)C2)cccc1-c1ccc(C(N)=O)c2[nH]c(C3=CCN(S(C)(=O)=O)CC3)cc12` (centres unmarked) [D.7.37], for which the IC50 is 0.1 to 1 µM. On the same count and under the same terms, the result for `Cc1cnc(C(=O)Nc2cccc(-c3ccc(C(N)=O)c4[nH]c(C5=CCN(S(C)(=O)=O)CC5)cc34)c2C)s1` [D.7.32] reads under 0.1 µM; that for `COc1ccc(C(=O)N[C@@H]2CCCN(c3ccc(C(N)=O)c4[nH]c(-c5cnn(C)c5)cc34)C2)cc1` [O.1.20*], 0.1 to 1 µM. Same read-out and setting: the result for `C=CC(=O)N1C[C@@H](CO)C[C@@H](c2ccc(C(N)=O)c3[nH]ccc23)C1` [E.9.45] reads 1 to 10 µM. For the compound `Cc1c(NCc2nccs2)cccc1-c1ccc(C(N)=O)c2[nH]c(C3=CCN(S(C)(=O)=O)CC3)cc12` [H.2.1, 4-(2-methyl-3-(thiazol-2-ylmethylamino)phenyl)-2-(1-(methylsulfonyl)-1,2,3,6-tetrahydropyridin-4-yl)-1H-indole-7-carboxamide], the IC50 was under 0.1 µM. Take `C=CC(=O)N1CC(N(C)c2ccc(C(N)=O)c3[nH]c(-c4cnc5c(c4)COCC5)cc23)C1` [E.9.11]: the IC50 is under 0.1 µM. Same read-out and setting: the result for `C=CC(=O)N1CC([C@@H](C)c2ncc(C(N)=O)c3[nH]ccc23)C1` [E.9.28] reads under 0.1 µM. As to `Cn1cc(-c2cc3c(-c4cccc(-n5cnc6ccc(F)cc6c5=O)c4CO)ccc(C(N)=O)c3[nH]2)cn1` [M.1.1], the IC50 is under 0.1 µM. For `C=CC(=O)Nc1cc(-c2ccc(C(N)=O)c3[nH]ccc23)ccc1OC` [E.1.8], the concentration for half-maximal inhibition (IC50) lay within 0.1 to 1 µM. On the same count and under the same terms, the result for `C=CC(=O)N1CCOC[C@H](c2ncc(C(N)=O)c3[nH]ccc23)C1` [E.9.31] reads 1 to 10 µM. For `Cc1c(NC(=O)/C=C\C(N)=O)cccc1-c1ccc(C(N)=O)c2[nH]c(C3=CCN(S(C)(=O)=O)CC3)cc12` [D.7.10], the IC50 was under 0.1 µM.

In the case of `Cc1ccc(-c2cc3c(-c4nccs4)ccc(C(N)=O)c3[nH]2)cc1` [U.1.2], the half-inhibitory concentration (IC50) is under 0.1 µM.

For `CS(=O)(=O)N1CC=C(c2cc3c(N4CCC[C@@H](n5ccn6ccnc6c5=O)C4)ccc(C(N)=O)c3[nH]2)CC1` [O.1.4*], the IC50 is under 0.1 µM.

The same test, now with this note: trFRET, 0.001 mM ATP, biotin-TYR1 peptide substrate; read-out: Btk IC50.
Consider `Cc1c(-c2ccc(C(N)=O)c3[nH]c(-c4ccc(F)cc4)cc23)cccc1N1Cc2ccc(F)cc2C1=O` [A.9.6], for which the IC50 is under 0.1 µM. `CC(=O)c1ccc(-c2ccc(C(N)=O)c3[nH]c(-c4ccc(C)cc4)cc23)s1` [A.8.5]: the IC50 fell in the range of 0.1 to 1 µM. On the same count and under the same terms, under `CCNC(=O)/C=C\C(=O)Nc1cccc(-c2ccc(C(N)=O)c3[nH]ccc23)c1` [D.9.2] stands under 0.1 µM. Regarding `NC(=O)c1ccc(-c2cccnc2)c2cc(-c3ccc(F)cc3)[nH]c12` [A.9.2], the concentration for half-maximal inhibition (IC50) was under 0.1 µM. Same read-out and setting: the result for `C=CC(=O)Nc1cccc(-c2ccc(C(N)=O)c3[nH]c(C4=CCC(F)(F)CC4)cc23)c1C` [E.1, 4-(3-Acrylamido-2-methylphenyl)-2-(4,4-difluorocyclohex-1-en-1-yl)-1H-indole-7-carboxamide] reads under 0.1 µM.

Turning to `Cc1ccc(-c2cc3c(-c4ccn[nH]4)ccc(C(N)=O)c3[nH]2)cc1` [A.8.1], the IC50 was in the range of 0.1 to 1 µM.

On to `Cc1c(NC(=O)c2nccs2)cccc1-c1ccc(C(N)=O)c2[nH]c(-c3ccccc3CNC(=O)CC#N)cc12` [D.1.3], for which the IC50 was 0.1 to 1 µM. As to `CCCC(=O)NCc1ccccc1-c1cc2c(-c3cccc(NC(=O)c4nccs4)c3C)ccc(C(N)=O)c2[nH]1` [D.1.8], the IC50 lay within 1 to 10 µM. On the same count and under the same terms, under `CC(=O)N1CC=C(c2cc3c(-c4cccc(NC(=O)c5cc6c(s5)CCCC6)c4C)ccc(C(N)=O)c3[nH]2)CC1` [A.3.5] stands under 0.1 µM. Turning to `C#CC(=O)NCc1ccccc1-c1cc2c(-c3cccc(NC(=O)c4nccs4)c3C)ccc(C(N)=O)c2[nH]1` [D.1.11], the IC50 lay in the range of 0.1 to 1 µM. Still for that read-out and setting: the result for `CCNC(=O)/C=C/C(=O)Nc1cccc(-c2ccc(C(N)=O)c3[nH]ccc23)c1` [D.4.3] reads 1 to 10 µM; that for `Cc1c(NC(=O)c2nccs2)cccc1-c1ccc(C(N)=O)c2[nH]c(-c3ccccc3CNC(=O)CCN3CCCCC3)cc12` [D.1.5], 1 to 10 µM; that for `C=CC(=O)Nc1cccc(-c2ccc(C(N)=O)c3[nH]c(-c4ccc(OC)nc4)cc23)c1C` [A.1.41], under 0.1 µM.

`Cc1c(-c2ccc(C(N)=O)c3[nH]c(-c4cncnc4)cc23)cccc1-n1cnc2ccc(F)cc2c1=O` [A.13.2]: the IC50 fell in the range of 0.1 to 1 µM. On the same count and under the same terms, under `CS(=O)(=O)N1CC=C(c2cc3c(N4CC[C@@H](O)[C@H](NC(=O)c5nccs5)C4)ccc(C(N)=O)c3[nH]2)CC1` (relative stereo) [O.1, N-(trans-1-(7-carbamoyl-2-(1-(methylsulfonyl)-1,2,3,6-tetrahydropyridin-4-yl)-1H-indol-4-yl)-4-hydroxypiperidin-3-yl)thiazole-2-carboxamide] stands under 0.1 µM.

For `C=CC(=O)N1CCC[C@@H](c2ccc(C(N)=O)c3[nH]ccc23)C1` [30 (S), (S)-4-(1-acryloylpiperidin-3-yl)-1H-indole-7-carboxamide], the IC50 was under 0.1 µM. Same read-out and setting: under `Cc1c(NC(=O)c2nccs2)cccc1-c1ccc(C(N)=O)c2[nH]c(-c3ccccc3CN)cc12` [Example 1, N-(3-(2-(2-(aminomethyl)phenyl)-7-carbamoyl-1H-indol-4-yl)-2-methylphenyl)thiazole-2-carboxamide] stands 0.1 to 1 µM; under `C=CS(=O)(=O)Nc1cccc(-c2ccc(C(N)=O)c3[nH]ccc23)c1` [I.1, 4-(3-(Vinylsulfonamido)phenyl)-1H-indole-7-carboxamide], under 0.1 µM; under `C=CC(=O)Nc1cccc(-c2ccc(C(N)=O)c3[nH]c(-c4ccc(F)cc4)cc23)c1C` [A.1.32], under 0.1 µM. The same measure, in the same setting: the result for `Cc1c(-c2ccc(C(N)=O)c3[nH]c(C4=CCOCC4)cc23)cccc1-n1cnc2ccccc2c1=O` [A.11.1] reads under 0.1 µM; that for `CC(=O)N1CC=C(c2cc3c(-c4cccc(NC(=O)c5ccc(C6CC6)cc5)c4C)ccc(C(N)=O)c3[nH]2)CC1` [A.3.6], under 0.1 µM; that for `C=CC(=O)Nc1cccc(-c2ccc(C(N)=O)c3[nH]c(-c4cccnc4OC)cc23)c1C` [A.1.18], under 0.1 µM.

Turning to `C=C(CC)C(=O)Nc1cccc(-c2ccc(C(N)=O)c3[nH]ccc23)c1C` [D.8.11], the IC50 fell in the range of 1 to 10 µM.

Consider `C=CC(=O)Nc1cccc(-c2ccc(C(N)=O)c3[nH]c(-c4cccnc4)cc23)c1C` [A.1.36], for which the 50% inhibitory concentration (IC50) is under 0.1 µM. Consider `Cn1cc(-c2cc3c(-c4cccc(NC(=O)c5nccs5)c4CO)ccc(C(N)=O)c3[nH]2)cn1` [M.1, N-(3-(7-carbamoyl-2-(1-methyl-1H-pyrazol-4-yl)-1H-indol-4-yl)-2-(hydroxymethyl)phenyl)thiazole-2-carboxamide], for which the IC50 is under 0.1 µM. On the same count and under the same terms, the result for `C=CC(=O)Nc1cccc(-c2ccc(C(N)=O)c3[nH]c(-c4cccc(F)c4)cc23)c1C` [A.1.26] reads under 0.1 µM; that for `CC(=O)N1CC=C(c2cc3c(-c4cccc(NC(=O)c5ccc(C(C)(C)C#N)cc5)c4C)ccc(C(N)=O)c3[nH]2)CC1` [A.3.8], under 0.1 µM. As for `Cc1c(-c2ccc(C(N)=O)c3[nH]c(C4=CCN(S(C)(=O)=O)CC4)cc23)cccc1N(CCO)C(=O)c1ccc(C(F)F)cc1` [A.4.14], the IC50 is under 0.1 µM.

As to `Cc1c(NC(=O)c2nccs2)cccc1-c1ccc(C(N)=O)c2[nH]c(-c3cnn(C)c3)cc12` [A.2.2], the IC50 was under 0.1 µM. Same read-out and setting: under `C=CC(=O)Nc1cccc(-c2ccc(C(N)=O)c3[nH]c(-c4ccnn4C4CCCCO4)cc23)c1C` (centres unmarked) [A.1.2] stands under 0.1 µM; under `Cc1c(-c2ccc(C(N)=O)c3[nH]c(C4=CCN(S(C)(=O)=O)CC4)cc23)cccc1N(C(=O)c1ccc(C(F)F)cc1)C1COC1` [A.4.12], under 0.1 µM; under `C=CC(=O)N1CC([C@@H](C)c2ccc(C(N)=O)c3[nH]ccc23)C1` [28 (R), (R)-4-(1-(1-acryloylazetidin-3-yl)ethyl)-1H-indole-7-carboxamide], under 0.1 µM.
